In patent publication US20090275099A1 (priority 2004, published 2009):
Read-outs that look alike come from different tables or passages of the source.

Tests used:
[1] = target: T1, mitochondrial F1F0-ATPase (Bos taurus, UniProt P13621+P32876); assay: biochemical; set-up: species or system bovine; conditions: for IC50: read-out: KJ IC50 (syn); for EC50: bovine SMPs
[2] = target: T1, mitochondrial F1F0-ATPase; assay: biochemical; set-up: species or system bovine; conditions: for IC50: read-out: KJ IC50 (hydr); for EC50: bovine SMPs
[3] = target: mitochondrial F1F0-ATPase (Homo sapiens, UniProt P48047); conditions: read-out: BMS IC50 (hydr); cited from earlier work
[4] = target: T2, F1F0-ATPase, OSCP subunit (UniProt P48047); assay: F1F0-ATPase activity in SMPs reconstituted in the presence or absence of the OSCP; format: biochemical, bovine; set-up: rows headed: KJ IC50 reconst; not tied in print to the reconstitution assay; conditions: read-out: KJ IC50 reconst
T2 sequence (P48047 1-213): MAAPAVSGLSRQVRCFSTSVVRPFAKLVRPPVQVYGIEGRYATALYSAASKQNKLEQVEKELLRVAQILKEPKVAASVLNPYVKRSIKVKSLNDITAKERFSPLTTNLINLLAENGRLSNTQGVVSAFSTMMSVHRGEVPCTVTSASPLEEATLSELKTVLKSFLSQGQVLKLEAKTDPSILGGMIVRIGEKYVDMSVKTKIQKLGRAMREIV
Experimental: (§1) An additional OSCP binding assay was conducted. […] Benzodiazepine derivative compounds that bind the OSCP include, but are not limited to: […]

[5] = tested on: F1F0-ATPase, OSCP subunit; assay: as above; format: biochemical, bovine; conditions: without OSCP, at IC50
Experimental: as §1

Ramos cells = assay: early O2− (ROS) response, 1 h; format: cell-based, human; conditions: for EC50: 1 h, read-out: ROS EC50 (μM), Ramos cells
Experimental: (§2) To detect O2^−, cells are incubated with DHE (10 μM) for 30 min at 37° C. and are analyzed by flow cytometry to measure ethidium fluorescence. Flow analysis of mitochondrial transmembrane potential (ψm) is conducted by labeling cells with DiOC6(3) (20 nM) for 15 min at 37 degrees C. A positive control for disruption of ψm is established using carbonyl cyanide m-chlorophenylhydrazone (CCCP, 50 μM). Caspase activation assays are performed with FAM-VAD-fluoromethylketone. Processing of the substrate is evaluated by flow cytometry.
(§3) Since an early mitochondrial superoxide (O2^−) mediates apoptosis induced by Bz-423, the O2^− response of cells 1 h following incubation with drug was examined, as well as cell death at 24 h, as previously described (see, e.g., Blatt, N. B., et al., 2002 J Clin Invest 110, 1123-1132; incorporated herein by reference in its entirety).

Jurkat cells [6] = assay: early O2− (ROS) response, 1 h; format: cell-based; conditions: for EC50: 1 h, read-out: ROS EC50 (μM), Jurkat cells; for % ROS+: Jurkat cells, 75 μM PK11195, with or without antioxidant pre-incubation
Experimental: as §2, §3

Ramos B cells = assay: cell death of Ramos B cells, propidium iodide exclusion by flow cytometry, 24 h; format: cell-based, human; conditions: for EC50: 24 h
Jurkat cells [7] = assay: cell death at 24 h; format: cell-based; conditions: for EC50: 24 h, read-out: Cell death EC50 (μM), Jurkat cells; for % Cell death: Jurkat cells, 75 μM PK11195, with or without antioxidant pre-incubation
Experimental: as §3

[8] = tested on: isolated rat liver mitochondria; assay: ROS production in isolated mitochondria (DCF oxidation); conditions: aerobic conditions supporting state 3 respiration, slope versus control
Experimental: Male Long Evans rats are starved overnight and sacrificed by decapitation. Liver samples are homogenized in ice cold buffer A (250 mM sucrose, 10 mM Tris, 0.1 mM EGTA, pH 7.4), and nuclei and cellular debris are pelleted (10 min, 830 g, 4° C.). Mitochondria are collected by centrifugation (10 min, 15,000 g, 4° C.), and the supernatant is collected as the S15 fraction. The mitochondrial pellet is washed three times with buffer B (250 mM sucrose, 10 mM Tris, pH 7.4), and re-suspended in buffer B at 20-30 mg/mL. Mitochondria are diluted (0.5 mg/mL) in buffer C (200 mM sucrose, 10 mM Tris, pH 7.4, 1 mM KH2PO4, 10 μM EGTA, 2.5 μM rotenone, 5 mM succinate) containing 2′,7′-dichlorodihydrofluorescin diacetate (DCFH-DA, 1 μM). For state 3 measurements, ADP (2 mM) is included in the buffer, and prior to the addition of Bz-423, mitochondria are allowed to charge for 2 min. To induce state 4, oligomycin (10 μM) is added to buffer C. […] To detect effects on O2^− and delta ψm, mitochondria are incubated for 15 min at 37° C. in buffer C with vehicle, Bz-423, or CCCP containing DHE (5 μM) or DIOC6(3) (20 nM), and aliquots are removed for analysis by fluorescence microscopy.
O2^− production by Bz-423 may result from binding to a protein within mitochondria or a target in another compartment that signals mitochondria to generate ROS. […]

[9] = ATPase activity EC50 (μM), Synthesis
[10] = ATPase activity EC50 (μM), Hydrolysis

Molecule | IC50 [1] | IC50 [2] | IC50 [3] | IC50 [4] | % activity without OSCP at IC50 [5] | other results
N#CN/C(=N\C(Cn1ccnc1)c1cc(C(F)(F)F)ccc1C(F)(F)F)Nc1ccc(Cl)cc1Cl (centres unmarked) [(1-(2,5-bis(trifluoromethyl)phenyl)-2-(1H-imidazol-1-yl)ethyl)-3-(2,4-dichlorophenyl)-2-cyanoguanidine] | 3750 nM | 100 nM | 710 nM | 250 nM |  | 
N#Cc1cccc(C(=O)/N=C(\Nc2ccc(Cl)cc2)NC(Cn2ccnc2)c2ccc(Cl)cc2Cl)c1 (racemic) [(+/−)-(1-(2,4-dichlorophenyl)-2-(1H-imidazol-1-yl)ethyl)-3-(4-chlorophenyl)-2-(3-cyanobenzoyl)guanidine] | 1500 nM | 100 nM | 33 nM | 200 nM |  | 
CC(C)(C)c1ccc(S(=O)(=O)N2Cc3ccccc3N(Cc3c[nH]cn3)C(CCc3ccccc3)C2)cc1 (centres unmarked) [4-(4-tertbutylphenylsulfonyl)-1-(1H-imidazol-4-ylmethyl)-2-phenethyl-2,3,4,5-tetrahydro-1H-benzo[e][1,4]diazepine] | 5000 nM | 25 nM | 8 nM | 20 nM | 77% | 
Cc1[nH]cnc1CN1c2ccccc2CN(S(=O)(=O)c2ccc(C(C)(C)C)cc2)CC1CCc1ccccc1 (centres unmarked) [4-(4-tert-butylphenylsulfonyl)-1-(5-methyl-1H-imidazol-4-ylmethyl)-2-phenethyl-2,3,4,5-tetrahydro-1H-benzo[e][1,4]diazepine] | 15000 nM | 55 nM | 77 nM | 5 nM | 80% | 
CN1C(=O)CN=C(c2ccc(Cl)cc2)c2cc(Cl)ccc21 [Compound 4-Cl-Dz, 4-chlorodiazepam] |  |  |  |  |  | EC50 (Ramos cells): 180 µM; EC50 ([1]; read-out: ATPase activity EC50 (μM), Synthesis): 210 µM; inhibition of mitochondrial ATPase activity ([2]; 80 μM): do not significantly inhibit mitochondrial ATPase activity; EC50 ([2]; read-out: ATPase activity EC50 (μM), Hydrolysis): > 300 µM; EC50 (Jurkat cells [6]): 230 µM; EC50 (Ramos B cells; read-out: Cell death EC50 (μM), Ramos cells): 130 µM; EC50 (Jurkat cells [7]): > 300 µM
O=S(=O)(c1ccc(Cl)c(Cl)c1)N1Cc2ccccc2N(Cc2c[nH]cn2)C(CCc2ccccc2)C1 (centres unmarked) [4-(3,4-dichlorophenylsulfonyl)-1-(1H-imidazol-4-ylmethyl)-2-phenethyl-2,3,4,5-tetrahydro-1H-benzo[e][1,4]diazepine] | 5000 nM | 60 nM | 22 nM | 50 nM | 76% | 
CN1C(=O)C(Cc2ccc3ccccc3c2)CN(c2ccc(O)cc2)c2cc(Cl)ccc21 (centres unmarked) [GD-423] |  |  |  |  |  | response of Ramos cells at 1 hour (Ramos cells; 1 hour, 2% FBS, DHE, FIG. 9): causes cell death; cellular death of Ramos cells (Ramos B cells; 24 hours, 2% FBS, FIG. 8): causes cell death
O=S(=O)(c1ccc(F)cc1)N1Cc2ccccc2N(Cc2c[nH]cn2)C(CCc2ccccc2)C1 (centres unmarked) [4-(4-fluorophenylsulfonyl)1-(1H-imidazol-4-ylmethyl)-2-phenethyl-2,3,4,5-tetrahydro-1H-benzo[e][1,4]diazepine] | 7500 nM | 150 nM | 221 nM | 100 nM | 79% | 
S=C(Nc1ccc(Cl)cc1)OC(Cn1ccnc1)c1ccc(Cl)cc1Cl (centres unmarked) [(4-chlorophenyl)-thiocarbamic acid O-[1-(2,4-dichlorophenyl)-2-imidazol-1-yl-ethyl] ester] | 12500 nM | 750 nM | 430 nM | 300 nM | 70% | 
O=C1CN=C(c2ccccc2Cl)c2cc([N+](=O)[O-])ccc2N1 [Cz, clonazepam] |  |  |  |  |  | EC50 (Ramos cells; Homo sapiens, Ramos): > 300 µM; EC50 [1, 9]: 120 µM; EC50 [2, 10]: 240 µM; EC50 (Jurkat cells [6]; Homo sapiens, Jurkat): > 300 µM; EC50 (Ramos B cells; Homo sapiens, Ramos, read-out: Cell death EC50 (μM), Ramos cells): > 300 µM; EC50 (Jurkat cells [7]; Homo sapiens, Jurkat): > 300 µM
N#CN/C(=N/c1ccc(Cl)cc1Cl)NC(Cn1ccnc1)c1ccc(Cl)cc1Cl (centres unmarked) [(1-(2,4-dichlorophenyl)-2-(1H-imidazol-1-yl)ethyl)-3-(2,4-dichlorophenyl)-2-cyanoguanidine] | 6000 nM | > 3000 nM | 600 nM | 4000 nM |  | 
CN1C(=O)CN=C(c2ccccc2)c2cc(Cl)ccc21 [Dz, diazepam, reference compound] |  |  |  |  |  | EC50 [1, 9]: 210 µM; EC50 [2, 10]: > 300 µM; EC50 (Ramos B cells; Homo sapiens, Ramos, read-out: EC50 (μM), cell death): > 80 µM
O=S(=O)(c1ccc(C(F)(F)F)cc1)N1Cc2ccccc2N(Cc2c[nH]cn2)C(CCc2ccccc2)C1 (centres unmarked) [4-(4-trifluoromethylphenylsulfonyl)-1-(1H-imidazol-4-ylmethyl)-2-phenethyl-2,3,4,5-tetrahydro-1H-benzo[e][1,4]diazepine] | 6000 nM | 50 nM | 100 nM | 25 nM | 80% | 
antimycin A |  |  |  |  |  | increase of the rate of ROS production [8]: nearly two-fold
COc1ccc(S(=O)(=O)N2Cc3ccccc3N(Cc3c[nH]cn3)C(CCc3ccccc3)C2)cc1 (centres unmarked) [4-(4-methoxyphenylsulfonyl)-1-(1H-imidazol-4-ylmethyl)-2-phenethyl-2,3,4,5-tetrahydrol-1H-benzo[e][1,4]diazepine] | 7500 nM | 75 nM | 77 nM | 50 nM | 81% | 
O=S(=O)(N1Cc2ccccc2N(Cc2c[nH]cn2)C(CCc2ccccc2)C1)C(F)(F)F (centres unmarked) [4-trifluoromethylsulfonyl-1-(1H-imidazol-4-ylmethyl)-2-phenethyl-2,3,4,5-tetrahydro-1H-benzo[e][1,4]diazepine] | 3750 nM | 50 nM | 77 nM | 50 nM | 78% | 
O=S(=O)(c1ccc(O)cc1)N1Cc2ccccc2N(Cc2cnc[nH]2)C(CCc2ccccc2)C1 (centres unmarked) [4-(4-hydroxphenylsulfonyl)-1-(1H-imidazol-4-ylmethyl)-2-phenethyl-2,3,4,5-tetrahydro-1H-benzo[e][1,4]diazepine] | 20000 nM | 750 nM | 667 nM | 500 nM | 77% | 
vitamin E |  |  |  |  |  | % ROS+ (Jurkat cells [6]): 33.9 ± 2.6%; % Cell death (Jurkat cells [7]): 55.9 ± 0.5%
O=C(O)c1ccc(-c2c3nc(c(-c4ccc(C(=O)O)cc4)c4ccc([nH]4)c(-c4ccc(C(=O)O)cc4)c4nc(c(-c5ccc(C(=O)O)cc5)c5ccc2[nH]5)C=C4)C=C3)cc1.[Mn+3] [MnTBAP, Manganese(III) meso-tetrakis(4-benzoic acid)porphyrin] |  |  |  |  |  | % ROS+ (Jurkat cells [6]): 39.7 ± 2.8%; % Cell death (Jurkat cells [7]): 68.9 ± 1.0%
